Test results reported in patent US10131664B2 (Celgene Quanticel Research, Inc., priority 2013, dated 2018).
Structures can show the parent of a compound that is named as a salt. Where two headings read alike, the source gives them in different places.

Legend:
full-length human LSD1 = full-length human LSD1 (Homo sapiens (Human), UniProt O60341); test: In vitro enzyme inhibition assay LSD-1 (TR-FRET); type: biochemical; settings: TR-FRET, 0.1 nM LSD1, 50 nM H3K4me1-biotin peptide, 2 μM FAD, pH7.3; read-out: LSD1 IC50
Experimental: This assay determines the ability of a test compound to inhibit LSD1 demethylase activity.
The enzymatic assay of LSD1 activity is based on Time Resolved-Fluorescence Resonance Energy Transfer (TR-FRET) detection.
The ability of the compounds disclosed herein to inhibit LSD1 activity was quantified and the respective IC50 value was determined. Table 5 provides the IC50 values of various substituted heterocyclic compounds disclosed herein.

THP-1 (AML) cells = test: LSD1 CD11b cellular assay (flow cytometry); type: cell-based; settings: Homo sapiens, read-out: Cellular IC50
Experimental: To analyze LSD1 inhibitor efficacy in cells, a CD11b flow cytometry assay was performed. LSD1 inhibition induces CD11b expression in THP-1 (AML) cells which can be measured by flow cytometry. […] LSD1 test compounds were serially diluted in DMSO. The dilutions were added to each well accordingly to a final concentration of 0.2% DMSO. The cells were incubated at 37° C. in 5% CO2 for 4 days. 250 μL of each well was transferred to a well in a 96 well round bottom plate. The plate was centrifuged at 1200 rpm at 4 degrees Celsius in a Beckman Coulter Alegra 6KR centrifuge for 5 min. The media was removed leaving the cells at the bottom of the wells. The cells were washed in 100 μL cold HBSS (Hank's Balanced Salt Solution) plus 2% BSA (Bovine Serum Albumin) solution and centrifuged at 1200 rpm at 4° C. for 5 min. The wash was removed. […] The cells were centrifuged and washed two times in 100 μl HBSS plus 2% BSA. After the final spin the cells were resuspended in 100 μL HBSS plus 2% BSA containing 1 μg/mL DAPI (4′,6-diamidino-2-phenylindole). The cells were then analyzed by flow cytometry in a BD FACSAria machine. Cells were analyzed for CD11b expression. The percent of CD11b expressing cells for each inhibitor concentration was used to determine an IC50 curve for each compound analyzed.

[1] = 96 h, CD11b expression in THP-1 (AML) cells, flow cytometry, 4 days incubation

IC50 (full-length human LSD1) [nM] | IC50 (THP-1 (AML) cells; [1]) [nM] | Structure (SMILES) | IC50 (THP-1 (AML) cells; THP-1, 96 h) [nM]
< 100 | < 100 | Cn1cnc2cc(-c3cnc(N4CCC(N)CC4)nc3-c3ccc(C#N)c(F)c3)c(F)c(F)c21 [Example 132, 4-[2-(4-aminopiperidin-1-yl)-5-(6,7-difluoro-1-methylbenzimidazol-5-yl)pyrimidin-4-yl]-2-fluorobenzonitrile] | –
< 100 | < 100 | Cn1cnc2cc(-c3cnc(N4CCC(N)CC4)nc3-c3ccc(C#N)c(F)c3)c(F)cc21 [Example 133, 4-[2-(4-aminopiperidin-1-yl)-5-(6-fluoro-1-methylbenzimidazol-5-yl)pyrimidin-4-yl]-2-fluorobenzonitrile] | –
< 100 | < 100 | Cc1ccc(-c2nc3ccn(C[C@H]4CCNC4)c3cc2-c2ccc(C#N)cc2)cc1 [Example 3, 4-[5-(4-methylphenyl)-1-[[(3S)-pyrrolidin-3-yl]methyl]pyrrolo[3,2-b]pyridin-6-yl]benzonitrile] | –
< 100 | – | Cc1ncc(-c2cnc(N3CCC(N)CC3)nc2-c2ccc(C#N)cc2)cn1 [Example 90, 4-[2-(4-aminopiperidin-1-yl)-5-(2-methylpyrimidin-5-yl)pyrimidin-4-yl]benzonitrile] | –
100 to 1000 | – | Cn1cc2nc(-c3cnc(N4CCC(N)CC4)nc3-c3ccc(C#N)cc3)ncc2n1 [Example 86] | –
100 to 1000 | – | N#Cc1ccc(-c2nc(N3CC4CNCC(C3)O4)ncc2-c2ccc(F)cc2)cc1 [Example 42, 4-[5-(4-fluorophenyl)-2-{9-oxa-3,7-diazabicyclo[3.3.1]nonan-3-yl}pyrimidin-4-yl]benzonitrile] | –
100 to 1000 | – | Cc1ccc(-c2cnc(N3CC4CNCC(C3)O4)nc2-c2ccc(C#N)cc2)cc1 [Example 41, 4-[5-(4-methylphenyl)-2-{9-oxa-3,7-diazabicyclo[3.3.1]nonan-3-yl}pyrimidin-4-yl]benzonitrile] | –
100 to 1000 | – | N#Cc1ccc(-c2nc(N3CCC(N)CC3)ncc2-c2ccc3ncnn3c2)cc1 [Example 127, 4-[2-(4-aminopiperidin-1-yl)-5-([1,2,4]triazolo[1,5-a]pyridin-6-yl)pyrimidin-4-yl]benzonitrile] | –
< 100 | – | N#Cc1ccc(-c2nc(N3CCC4(CCNC4)CC3)ncc2-c2cnn(CC(F)(F)F)c2)cc1 [Example 121, 4-[2-(2,8-diazaspiro[4.5]decan-8-yl)-5-[1-(2,2,2-trifluoroethyl)pyrazol-4-yl]pyrimidin-4-yl]benzonitrile] | –
< 100 | – | Cc1ccc(-c2cnc(N3CCC4(CCNC4)CC3)nc2-c2ccc(C#N)cc2)cc1 [Example 39, 4-(2-{2,8-diazaspiro[4.5]decan-8-yl}-5-(4-methylphenyl)pyrimidin-4-yl)benzonitrile] | –
< 100 | – | COc1ncc(-c2cnc(N3CCC(N)CC3)nc2-c2ccc(C#N)cc2)cn1 [Example 74, 4-[2-(4-aminopiperidin-1-yl)-5-(2-methoxypyrimidin-5-yl)pyrimidin-4-yl]benzonitrile] | –
– | 1000 to 10000 | N#Cc1ccc(-c2cc3c(ccn3C[C@@H]3CCNC3)nc2Cl)cc1 [Example 2] | –
100 to 1000 | – | Cn1ncc2nc(-c3cnc(N4CCC(N)CC4)nc3-c3ccc(C#N)cc3)ncc21 [Example 88, 4-[2-(4-aminopiperidin-1-yl)-5-(1-methylpyrazolo[4,3-d]pyrimidin-5-yl)pyrimidin-4-yl]benzonitrile] | –
< 100 | – | Cc1nc2cc(-c3cnc(N4CCC(N)CC4)nc3-c3ccc(C#N)cc3)ccc2n1C [Example 75, 4-[2-(4-aminopiperidin-1-yl)-5-(1,2-dimethylbenzimidazol-5-yl)pyrimidin-4-yl]benzonitrile] | –
– | 100 to 1000 | Cc1ccc(-c2cnc(NCC3(F)CCNC3)nc2-c2ccc(C#N)cc2)cc1 (single isomer, unassigned; (+)) [Example 28, (+)-4-(2-{[(3-fluoropyrrolidin-3-yl)methyl]amino}-5-(4-methylphenyl)pyrimidin-4-yl)benzonitrile] | –
< 100 | – | Cc1ccc(-c2cnc(NCC3CCNCC3)nc2-c2ccc(C#N)cc2)cc1 [Example 32, 4-[5-(4-methylphenyl)-2-[(piperidin-4-ylmethyl)amino]pyrimidin-4-yl]benzonitrile] | –
– | 100 to 1000 | Cc1ccc(-c2cnc(NC3CCCNC3)nc2-c2ccc(C#N)cc2)cc1 (single isomer, unassigned; (+)) [Example 29, (+)-4-[5-(4-methylphenyl)-2-[(piperidin-3-yl)amino]pyrimidin-4-yl]benzonitrile] | –
< 100 | – | Cc1ccc(-c2cnc(N3CCC4(CCNC4)C3)nc2-c2ccc(C#N)cc2)cc1 (stereo not drawn) [Example 35, 4-(2-{2,7-diazaspiro[4.4]nonan-2-yl}-5-(4-methylphenyl)pyrimidin-4-yl)benzonitrile] | –
< 100 | – | Cc1ccc(-c2cnc(NC3CCNCC3)nc2-c2ccc(C#N)cc2)cc1 [Example 30, 4-[5-(4-methylphenyl)-2-[(piperidin-4-yl)amino]pyrimidin-4-yl]benzonitrile] | –
< 100 | – | Cc1ccc(-c2cnc(N3CCC4(CCNCC4)C3)nc2-c2ccc(C#N)cc2)cc1 [Example 36, 4-(2-{2,8-diazaspiro[4.5]decan-2-yl}-5-(4-methylphenyl)pyrimidin-4-yl)benzonitrile] | –
100 to 1000 | – | N#Cc1ccc(-c2cc3c(ccn3CC3(F)CCNC3)nc2N2CCOCC2)cc1 (stereo not drawn) [Example 8, 4-[1-[(3-fluoropyrrolidin-3-yl)methyl]-5-morpholin-4-ylpyrrolo[3,2-b]pyridin-6-yl]benzonitrile] | –
100 to 1000 | – | N#Cc1ccc(-c2nc(N3CCC(N)CC3)ncc2-c2ccn3ncnc3c2)cc1 [Example 81, 4-[2-(4-aminopiperidin-1-yl)-5-([1,2,4]triazdo[1,5-a]pyridin-7-yl)pyrimidin-4-yl]benzonitrile] | –
100 to 1000 | – | N#Cc1ccc(-c2nc(NC[C@H]3CCNC3)ncc2Cl)cc1 [Example 17, 4-(5-chloro-2-{[(3S)-pyrrolidin-3-ylmethyl]amino}pyrimidin-4-yl)benzonitrile] | –
100 to 1000 | – | N#Cc1ccc(-c2nc(NCC3CNCCO3)ncc2-c2ccc(F)cc2)cc1 (racemic) [Example 34, (±)-4-[5-(4-fluorophenyl)-2-[(morpholin-2-ylmethyl)amino]pyrimidin-4-yl]benzonitrile] | –
< 100 | – | Cc1nn(C)cc1-c1cnc(N2CCC3CNCC3CC2)nc1-c1ccc(C#N)cc1 (stereo not drawn) [Example 118, 4-[2-(2,3,3a,4,5,7,8,8a-octahydro-1H-pyrrolo[3,4-d]azepin-6-yl)-5-(1,3-dimethylpyrazol-4-yl)pyrimidin-4-yl]benzonitrile] | –
< 100 | – | Cc1ccc(-c2cnc(N3CCC4(CCCN4)CC3)nc2-c2ccc(C#N)cc2)cc1 [Example 40, 4-(2-{1,8-diazaspiro[4.5]decan-8-yl}-5-(4-methylphenyl)pyrimidin-4-yl)benzonitrile] | –
< 100 | – | N#Cc1ccc(-c2nc(N3CC[C@@H]4CNC[C@@H]4CC3)ncc2-c2ccc(F)cc2)cc1 [Example 24, 4-{2-[(3aR,8aS)-decahydropyrrolo[3,4-d]azepin-6-yl]-5-(4-fluorophenyl)pyrimidin-4-yl}benzonitrile] | –

Structure (SMILES) | IC50 (full-length human LSD1) [nM] | IC50 (THP-1 (AML) cells; [1]) [nM] | IC50 (THP-1 (AML) cells; THP-1, 96 h) [nM]
COc1ccc(-c2nc3ccn(C[C@@H]4CCNC4)c3cc2-c2ccc(C#N)c(F)c2)cc1 [Example 52, HCl salt] | < 100 | – | < 100
Cc1ccc(-c2nc3cnn(C4CCNCC4)c3cc2-c2ccc(C#N)cc2)cc1 [Example 48, 4-[5-(4-methylphenyl)-1-piperidin-4-ylpyrazolo[4,3-b]pyridin-6-yl]benzonitrile] | – | > 10000 | –
